In patent US20240261444A1, “RIGIDIFIED MACROCYCLES, COMPLEXES WITH RADIONUCLIDES, AND USE IN TARGETED RADIOTHERAPY OF CANCER” (Cornell University, priority 2021, published 2024):
Where two headings read alike, the source gives them in different places.

Legend:
[1] = Thermodynamic stability constants of lanthanum complexes by potentiometric titration; conditions: for pLa (−log [M]free): [M]tot = 10^−6 M, [L]tot = 10^−5 M; for pLa (−log [M]free) / log KLa′ (conditional stability constant): pH 7.4, 25° C., I = 0.1M KCl; for ranking of log KLaL of lanthanum-ligand complexes: equimolar La^3+; for ranking of log KLaL of lanthanum-ligand complexes / stability of complexes with La^3+ (in words): potentiometric titration
Procedure: Thermodynamic stability studies.
(§1) Potentiometric Titrations. Stability constant measurements were carried out by titrating an aqueous solution (˜15 mL) of ligand (˜1 mM), metal (˜1 mM), and HCl (˜10 mM) with standardized KOH (0.1 M). The ionic strength of the solution was maintained at 0.1 M using KCl. The titration method employed a 0.1 mV/min drift limit with a minimum and maximum wait time of 0 s and 300 s respectively between addition of KOH aliquots (0.015 mL volume increments). No metal hydroxide precipitation was observed within the pH range and concentration employed. […] The stability constants were calculated from the average of three independent titrations (using three independently prepared ligand stock solutions from three independent synthetic preparations of ligands).

[2] = Protonation constants by potentiometric titration; assay type: physicochemical; conditions: I=0.1 M KCl, 25° C.
Procedure: Potentiometric Titrations. Stability constant measurements were carried out by titrating an aqueous solution (˜15 mL) of ligand (˜1 mM), metal (˜1 mM), and HCl (˜10 mM) with standardized KOH (0.1 M). The ionic strength of the solution was maintained at 0.1 M using KCl. The titration method employed a 0.1 mV/min drift limit with a minimum and maximum wait time of 0 s and 300 s respectively between addition of KOH aliquots (0.015 mL volume increments). […] The titration data within the pH range of 2.2-11.3 were analyzed using Hyperquad2013 software. The stability constants were calculated from the average of three independent titrations (using three independently prepared ligand stock solutions from three independent synthetic preparations of ligands).

[3] = Thermodynamic stability constants of barium complexes by potentiometric titration; conditions: for pBa (−log [M]free): [M]tot = 10^−6 M, [L]tot = 10^−5 M; for pBa (−log [M]free) / log KBa′ (conditional stability constant): pH 7.4, 25° C., I = 0.1M KCl
Procedure: Thermodynamic stability studies.
as §1

[4] = pH 7.4
Procedure: Thermodynamic stability studies.
as §1

[5] = pH 7.4; remark: listed apart in the source
Procedure: Thermodynamic stability studies.
as §1

[6] = assay type: physicochemical
Procedure: H2BZmacropa-NCS Hydrolysis. The stability of BZmacropa-NCS^2— towards hydrolysis was tested as the followings. A solution (1 mL) of H2BZmacropa-NCS (≈1.5 mM) was prepared in 0.1 M Na2CO3/NaHCO3pH 9.1 buffer and stored at room temperature (≈23±1° C.) in a vial covered with aluminum foil. This solution was analyzed periodically by analytical HPLC (method quick-MeCN, 5 μL aliquots) for over a week.

human GPC3 protein = molecular target: T1, human GPC3 protein (Homo sapiens, UniProt P51654); test: Binding affinity by bio-layer interferometry (BLI); conditions: immobilized biotinylated human GPC3, antibody 0-25 nM, global fit
T1 construct: biotin (biotinylated); purchased Acro Biosystems, Newark, DE
Procedure: Biotinylated human GPC3 protein (Acro Biosystems, Newark, DE) was diluted to 1 μg/mL in assay buffer: 1×PBS with 0.02% Tween-20 and 0.1% acetylated BSA (Electron Microscopy Sciences, Hatfield, PA) in a 96-well plate and loaded onto streptavidin biosensors (ForteBio, Menlo Park, CA). Antibodies were diluted in assay buffer at 4 concentrations from 0-25 nM and loaded into a 96-well plate (final volume of 200 μL). GPC3 was loaded to a density of 0.3 to avoid avidity affects. Reference wells containing buffer only, GPC3-only and antibody only were used as blanks. Plates were run on an Octet Red96 system (FortéBio, Menlo Park, CA) and analyzed with ForteBio Octet Data Analysis software (v.11). […] The combined association and dissociation kinetic data across all concentrations were fit using the global fitting model in the Octet Analysis Studio software.

[7] = assay type: in vivo, mice
Procedure: Biodistribution. […] At 48 and 96 h post-injection, mice (n=3-4 per time point) were euthanized. Their organs were harvested and weighed, then counted on a gamma counter after allowing 24 h for ^225Ac daughters to equilibrate. The activity in each organ was decay-corrected using a standard of known activity prepared at the same time as the injections. Radiotracer uptake in each organ was calculated by dividing the % injected activity (% IA) in each organ by the organ's weight. Measurement errors are reported as the standard deviation of the % IA/g values (FIGS. 2A-2B).

Compound	log KLaL ([1]; I=0.1 M KCl, 25° C.)	pLa (−log [M]free) [1]	log KLa′ (conditional stability constant) [1]	log K1 (protonation constant) [2]	log K2 (protonation constant) [2]	log K3 (protonation constant) [2]	log K4 (protonation constant) [2]	log KBaL ([3]; I=0.1 M KCl, 25° C.)	pBa (−log [M]free) [3]	log KBa′ (conditional stability constant) [3]	log KBaHL ([3]; I=0.1 M KCl, 25° C.)	ranking of log KLaL of lanthanum-ligand complexes [1]	other results
O=C(O)CN1CCN(CC(=O)O)CCN(CC(=O)O)CCN(CC(=O)O)CC1 [DOTA]	21.7	16.62	15.67	11.14	9.69	4.85	3.95	11.75	6.76	5.72	–	–	–
O=C(O)CN(CCN(CC(=O)O)CC(=O)O)CCN(CC(=O)O)CC(=O)O [DTPA]	19.48	16.28	–	10.34	8.59	4.25	2.71	8.78	6.15	–	5.34	–	log K5 (protonation constant) [2]: 2.18; log KLa′ (conditional stability constant) [4]: 15.32; log KBa′ (conditional stability constant) [5]: 4.63
O=C(O)CN(CCN(CC(=O)O)CC(=O)O)CC(=O)O [EDTA]	15.46	13.60	12.65	10.19	6.13	2.69	2.00	7.80	6.28	4.99	–	–	–
O=C(O)c1cccc(CN2CCOc3ccccc3OCCN(Cc3cccc(C(=O)O)n3)CCOc3ccccc3OCC2)n1 [H2BZ2macropa, 6,6′-((6,7,9,10,17,18,20,21-octahydro-8H,19H-dibenzo[b,k][1,4,10,13]tetraoxa[7,16]diazacyclooctadecine-8,19-diyl)bis(methylene))dipicolinic acid]	–	–	–	–	–	–	–	–	–	–	–	H2macropa>H2BZmacropa>H2BZ2macropa	stability of complexes with La^3+ (in words) [1]: form highly stable complexes with La^3+
O=C(O)c1cccc(CN2CCOCCOCCN(Cc3cccc(C(=O)O)n3)CCOc3ccccc3OCC2)n1 [H2BZmacropa, 6,6′-((2,3,5,6,8,9,11,12,14,15-decahydro-4H,13H-benzo[b][1,4,10,13]tetraoxa[7,16]diazacyclooctadecine-4,13-diyl)bis(methylene))dipicolinic acid]	13.98	–	–	7.06	6.41	3.33	2.49	9.09	9.87	8.91	3.56	H2macropa>H2BZmacropa>H2BZ2macropa	stability of complexes with La^3+ (in words) [1]: form highly stable complexes with La^3+
O=C(O)c1cccc(CN2CCOCCOCCN(Cc3cc(N=C=S)cc(C(=O)O)n3)CCOCCOCC2)n1 [H2macropa-NCS]	–	–	–	–	–	–	–	–	–	–	–	–	time for complete hydrolysis ([6]; 0.1 M Na2CO3/NaHCO3 pH 9.1 buffer, room temperature): more than a week's time; half-life of hydrolysis of the thiocyanate functional group ([6]; buffer, pH 9.1): 56 h
O=C(O)c1cccc(CN2CCOCCOCCN(Cc3cccc(C(=O)O)n3)CCOCCOCC2)n1 [H2macropa]	14.99	15.58	14.63	7.41	6.90	3.23	2.45	11.11	11.69	10.74	3.76	H2macropa>H2BZmacropa>H2BZ2macropa	log KLaHL ([1]; I=0.1 M KCl, 25° C.): 2.28; log KBaH2L ([3]; I=0.1 M KCl, 25° C.): 2.49
GC33-BZM: "GC33-BZmacropa conjugate"	–	–	–	–	–	–	–	–	–	–	–	–	Kd (human GPC3 protein): 0.19 nM
^225Ac[Ac]-GC33-BZM: "The radioconjugate ^225Ac[Ac]-GC33-BZM"	–	–	–	–	–	–	–	–	–	–	–	–	tumor targeting compared with ^225Ac[Ac]-GC33-M ([7]; mice, intravenous 100 nCi, 48 and 96 h): no significant difference; tumor uptake ([7]; mice, intravenous 100 nCi, 48 and 96 h post-injection): clear, specific tumor uptake at both 48 and 96 h post-injection, with tumor signal greater than that of all organs at both time points; off-target accumulation in liver and femur compared with ^225Ac[Ac]-GC33-M ([7]; mouse, in vivo): higher than that of ^225Ac[Ac]-GC33-M in both the liver and femur at 48 h
